The values that follow come from the ASAP Discovery antiviral challenge data (2025).

For one experiment, the target named is SARS-CoV-2 Mpro (UniProt P0DTD1).
The target of a further experiment is MERS-CoV Mpro (UniProt K9N7C7).

As usually defined, the IC50 is the concentration needed to halve the response being measured.

In the case of `O=C(NCc1cccs1)[C@@H]1CN(C(=O)c2cccnc2)CCN1c1ccc(Cl)c(Cl)c1`, the 50% inhibitory concentration (IC50) worked out at 0.123 µM against SARS-CoV-2 Mpro and 57.5 µM against MERS-CoV Mpro.
